Drawing on US20210163404A1, “NOVEL UREA COMPOUNDS AND BIOISOSTERES THEREOF AND THEIR USE FOR TREATING INFLAMMATION AND INFLAMMATION-RELATED PATHOLOGIES” (UNIVERSITÉ LAVAL, priority 2017, published 2021), this text covers melting point and IC50 for 38 compounds.

Molecules are shown by their SMILES. Values joined by “and” are separate entries in the source; they are usually repeats but may differ in a detail not shown here. Equal values may be shown once. Where only a bound is given, the exact number is not on record here.

The test system of data set [1] is A549 adenocarcinoma alveolar epithelial cancer cells. Kind of data set: Antiproliferative activity (NCI procedure, sulforhodamine B), A549. It counts as cell-based, human. The conditions noted are these: Homo sapiens, A549, unit inferred, tested 781 nM to 100 μM, 48 h. The method, then: (§1) The antiproliferative activity of compounds 3a-b, 4a-e, 5a-e and 6a-e was subsequently evaluated using the human HT-29 colon adenocarcinoma and the A549 adenocarcinoma alveolar epithelial cancer cell lines, the HaCaT spontaneously transformed aneuploid immortal keratinocyte cell line and the HDFn neonatal dermal fibroblast cell line (Table 2). Cell growth inhibition was assessed according to the NCI/NIH Developmental Therapeutics Program.
(§2) The antiproliferative activity assay of all compounds was assessed using the procedure recommended by the National Cancer Institute for its drug screening program with minor modifications. Briefly, 96-well microtiter plates were seeded with 75 μL of a suspension of either HaCaT (5×10^3), HT-29 (3.0×10^3), A549 (3.0×10^3) or HDFn (3×10^3) cells per well in DMEM and incubated for 24 h at 37° C. in a moisture-saturated atmosphere containing 5% CO2. Compounds freshly solubilized in DMSO (40 mM) were diluted in fresh DMEM, and 75 μL aliquots containing serially diluted concentrations of the compound were added. Final compound concentrations ranged from 100 μM to 781 nM. DMSO was maintained at a concentration of <0.5% (v/v) to avoid any related cytotoxicity. Plates were subsequently incubated for 48 h. Cell growth was then stopped by the addition of cold trichloroacetic acid to the wells (10% w/v, final concentration), followed by a 1 h incubation period at 4° C. The plates were washed 4-times with water. A sulforhodamine B solution (75 μL; 0.1% w/v) in acetic acid (1%) was subsequently added to each well and the plates incubated over a 15 min period while at room temperature. After staining, any unbound dye was removed by washing 4-times with an acetic acid solution (1%). Bound dye was solubilized in 20 mM Tris base and the absorbance was measured at an optimal wavelength (530-568 nm) using a μQuant® Universal microplate spectrophotometer (BioTek, Winooski, Vt.). The measurements for treated cells were compared with measurements from control cell plates fixed on treatment day and the percentage of cell growth inhibition was calculated for each drug. The experiments were performed at least twice in triplicate. The assays were considered valid when the coefficient of variation for a given set of conditions and within the same experiment was <10%.

The test system of data set [2] is HDFn neonatal dermal fibroblast cell line. Kind of data set: Antiproliferative activity (NCI procedure, sulforhodamine B), HDFn. Format: cell-based, human. To be noted: Homo sapiens, Fibroblast, unit inferred, tested 781 nM to 100 μM, 48 h. The method, then:
as §1, §2

Data set [3] relates to HaCaT keratinocyte cell line. Nature of the data set: Antiproliferative activity (NCI procedure, sulforhodamine B), HaCaT. To be noted: Homo sapiens, HaCaT, unit inferred, tested 781 nM to 100 μM, 48 h. Format: cell-based, human. The method, then:
as §1, §2

Data set [4] has as its system HT-29 colon adenocarcinoma cells. Nature of the data set: Antiproliferative activity (NCI procedure, sulforhodamine B), HT-29. Format: cell-based, human. To be noted: Homo sapiens, HT-29, unit inferred, tested 781 nM to 100 μM, 48 h. The method, then:
as §1, §2

For `CC(C)(C)NC(=O)Nc1ccc(I)cc1` [Compound 2], the melting point was 179 to 199 °C. Moreover, in data set [1] (Table 5), 37.1 µM corresponded to half-maximal inhibition (IC50). It took 27.1 µM to reach half-maximal inhibition in data set [2] (Table 5) (IC50). In data set [3] (Table 5), the IC50 turned out to be 44.7 µM. This compound also had a concentration for half-maximal inhibition (IC50) in data set [4] (Table 5) of 32.9 µM.

Turning to `CCCNC(=O)Nc1ccc(I)cc1` [Compound 3], the melting point was in the range of 197 to 199 °C. Besides, the half-maximal inhibitory concentration (IC50) in data set [1] (Table 5) was 82.7 µM. In data set [2] (Table 5), this compound yielded an IC50 of 81.3 µM. In data set [3] (Table 5), this compound had an IC50 of 94.9 µM. The compound further showed an IC50 in data set [4] (Table 5) of 51.9 µM.

The compound `CC(C)NC(=O)Nc1cccc(I)c1` [Compound 4] returned a melting point of 153 to 156 °C. Further, the 50% inhibitory concentration (IC50) in data set [1] (Table 5) was 80.3 µM. For the same compound, the IC50 in data set [2] (Table 5) came out at 59.1 µM. Moreover, the half-maximal inhibitory concentration (IC50) in data set [3] (Table 5) came out at 94.5 µM. The compound further gave an IC50 in data set [4] (Table 5) greater than 100 µM.

As for `CC(C)(C)NC(=O)Nc1cccc(I)c1` [Compound 5], the melting point was 189 to 193 °C. The same compound returned an IC50 in data set [1] (Table 5) of 61.8 µM. Moreover, half-maximal inhibition in data set [2] (Table 5) (IC50) required 17.4 µM. The half-maximal inhibitory concentration (IC50) in data set [3] (Table 5) was greater than 100 µM. This compound also registered a half-inhibitory concentration (IC50) in data set [4] (Table 5) of 81.3 µM.

Turning to `CCCNC(=O)Nc1cccc(I)c1` [Compound 6], the melting point is 132 to 136 °C. The IC50 in data set [1] (Table 5) turned out to be 80 µM. Also, the half-inhibitory concentration (IC50) in data set [2] (Table 5) came to 44.2 µM. In data set [3] (Table 5), this compound displayed a 50% inhibitory concentration (IC50) of 99.7 µM. Also, it took 87.9 µM to reach half-maximal inhibition in data set [4] (Table 5) (IC50).

Take `CC(C)NC(=O)Nc1ccc(C(C)(C)C)cc1` [Compound 7]: the melting point was 152 to 155 °C. For the same compound, in data set [1] (Table 5), the IC50 was found to be 83.2 µM. The same compound displayed a 50% inhibitory concentration (IC50) in data set [2] (Table 5) of 57.4 µM. Further, the IC50 in data set [3] (Table 5) was greater than 100 µM. In addition, the concentration for half-maximal inhibition (IC50) in data set [4] (Table 5) stood at 74.2 µM.

With `CC(C)(C)NC(=O)Nc1ccc(C(C)(C)C)cc1` [Compound 8], the melting point is 167 to 174 °C. In data set [1] (Table 5), this compound registered an IC50 of 34.2 µM. The half-maximal inhibitory concentration (IC50) in data set [2] (Table 5) amounted to 14.5 µM. The compound also gave an IC50 in data set [3] (Table 5) of 55 µM. The same compound registered a half-inhibitory concentration (IC50) in data set [4] (Table 5) of 35.6 µM.

In turn, `CCCNC(=O)Nc1ccc(C(C)(C)C)cc1` [Compound 9] displayed a melting point of 147 to 151 °C. For the same compound, in data set [1] (Table 5), the IC50 was 67.1 µM. In data set [2] (Table 5), the IC50 is 10.5 µM. Besides, the concentration for half-maximal inhibition (IC50) in data set [3] (Table 5) is greater than 100 µM. The compound also had an IC50 in data set [4] (Table 5) of 54.9 µM.

For the compound `O=C(NCC1CC1)Nc1ccc(I)cc1` [Compound 21, 1-(Cyclopropylmethyl)-3-(4-iodophenyl)urea], the melting point lay in the range of 192 to 194 °C.

For the compound `O=C(Nc1ccc(I)cc1)NC1CCC1` [Compound 22, 1-Cyclobutyl-3-(4-iodophenyl)urea], the melting point was in the range of 208 to 210 °C.

Regarding `O=C(NCC1CCCC1)Nc1ccc(I)cc1` [Compound 25, 1-(Cyclopentylmethyl)-3-(4-iodophenyl)urea], the melting point was 158 to 161 °C and 158 to 162 °C.

The compound `COCCNC(=O)Nc1ccc(I)cc1` [Compound 26, 1-(4-Iodophenyl)-3-(2-methoxyethyl)urea] returned a melting point of 141 to 143 °C.

On to `CC(C)(C)c1ccc(NC(=O)NCC2CC2)cc1` [Compound 28, 1-(4-(t-Butyl)phenyl)-3-(cyclopropylmethyl)urea], for which the melting point lay in the range of 168 to 170 °C.

With `CC(C)(C)c1ccc(NC(=O)NC2CCC2)cc1` [Compound 29, 1-(4-(t-Butyl)phenyl)-3-cyclobutylurea], the melting point is 189 to 190 °C.

In the case of `COCCNC(=O)Nc1ccc(C(C)(C)C)cc1` [Compound 33, 1-(4-(t-Butyl)phenyl)-3-(2-methoxyethyl)urea], the melting point is 122 to 124 °C.

On to `CCC(CC)NC(=O)Nc1ccc(C(C)(C)C)cc1` [Compound 34, 1-(4-(t-Butyl)phenyl)-3-(pentan-3-yl)urea], for which the melting point lay in the range of 119 to 121 °C.

Regarding `O=C(Nc1ccc(I)cc1)NC1CC=CC1` [Compound 35, 1-(Cyclopent-3-en-1-yl)-3-(4-iodophenyl)urea], the melting point is 201 to 202 °C.

`O=C(NCC1CC1)Nc1cccc(I)c1` [Compound 37, 1-(Cyclopropylmethyl)-3-(3-iodophenyl)urea] showed a melting point of 139 to 140 °C.

The compound `O=C(Nc1cccc(I)c1)NC1CCC1` [Compound 38, 1-Cyclobutyl-3-(3-iodophenyl)urea] gave a melting point of 178 to 180 °C.

Regarding `O=C(Nc1cccc(I)c1)NC1CC=CC1` [Compound 41, 1-(Cyclopent-3-en-1-yl)-3-(3-iodophenyl)urea], the melting point was 151 to 153 °C.

Take `COCCNC(=O)Nc1cccc(I)c1` [Compound 42, 1-(3-Iodophenyl)-3-(2-methoxyethyl)urea]: the melting point lay within 99 to 101 °C.

In turn, `CC(C)(C)CNC(=O)Nc1cccc(I)c1` [Compound 43, 1-(3-Iodophenyl)-3-neopentylurea] came in with a melting point of 114 to 115 °C.

Consider `CC(C)(C)c1cccc(NC(=O)NCC2CC2)c1` [Compound 45, 1-(3-(t-Butyl)phenyl)-3-(cyclopropylmethyl)urea], for which the melting point fell in the range of 165 to 166 °C.

Compound `CC(C)(C)c1cccc(NC(=O)NC2CCC2)c1` [Compound 46, 1-(3-(t-Butyl)phenyl)-3-cyclobutylurea] showed a melting point of 165 to 166 °C.

In the case of `CC(C)(C)c1cccc(NC(=O)NCC2CCCC2)c1` [Compound 49], the melting point lay within 113 to 114 °C.

Regarding `CC(C)(C)c1cccc(NC(=O)NC2CC=CC2)c1` [Compound 50, 1-(3-(t-Butyl)phenyl)-3-(cyclopent-3-en-1-yl)urea], the melting point lay in the range of 135 to 137 °C.

Take `CC(C)(C)CNC(=O)Nc1cccc(C(C)(C)C)c1` [Compound 51, 1-(3-(t-Butyl)phenyl)-3-neopentylurea]: the melting point fell in the range of 145 to 147 °C.

Turning to `COCCNC(=O)Nc1cccc(C(C)(C)C)c1` [Compound 52, 1-(3-(t-Butyl)phenyl)-3-(2-methoxyethyl)urea], the melting point lay in the range of 119 to 120 °C.

`CCC(CC)NC(=O)Nc1cccc(C(C)(C)C)c1` [Compound 53, 1-(3-(t-Butyl)phenyl)-3-(pentan-3-yl)urea] yielded a melting point of 159 to 161 °C.

Consider `O=C(NCC1CC1)Nc1ccc(C2CCCCC2)cc1` [Compound 55, 1-(4-Cyclohexylphenyl)-3-(cyclopropylmethyl)urea], for which the melting point lay within 178 to 181 °C.

Compound `O=C(NCC1CCCC1)Nc1ccc(C2CCCCC2)cc1` [Compound 59] yielded a melting point of 142 to 144 °C.

In turn, `O=C(Nc1ccc(C2CCCCC2)cc1)NC1CC=CC1` [Compound 60, 1-(4-Cyclohexylphenyl)-3-(cyclopent-3-en-1-yl)urea] yielded a melting point of 167 to 169 °C.

In turn, `CC(C)(C)CNC(=O)Nc1ccc(C2CCCCC2)cc1` [Compound 61, 1-(4-Cyclohexylphenyl)-3-neopentylurea] returned a melting point of 167 to 169 °C.

For `CCC(CC)NC(=O)Nc1ccc(C2CCCCC2)cc1` [Compound 62, 1-(4-Cyclohexylphenyl)-3-(pentan-3-yl)urea], the melting point was 174 to 176 °C.

`CCC(CC)NC(=O)Nc1ccc(I)cc1` [Compound 64, 1-(4-Iodophenyl)-3-(pentan-3-yl)urea] showed a melting point of 174 to 176 °C.

`CC(C)(C)CNC(=O)Nc1ccc(C(C)(C)C)cc1` [Compound 65, 1-(4-(t-Butyl)phenyl)-3-neopentylurea]: the melting point lay in the range of 185 to 187 °C.

For `CC(C)(C)c1cccc(Nc2c(NC3CCCC3)c(=O)c2=O)c1` [Compound 87], the 50% inhibitory concentration (IC50) in data set [1] (Table 7) was 4 µM; in data set [2] (Table 7) it was 2.8 µM; in data set [3] (Table 7) it was 5.5 µM; in data set [4] (Table 7), 4.3 µM.

Consider `CCNC(=S)Nc1cccc(C2CCCCC2)c1` [Compound 104], for which the IC50 in data set [1] (Table 8) turned out to be 22.4 µM; in data set [2] (Table 8) it was 12.9 µM; in data set [3] (Table 8), 19.3 µM; in data set [4] (Table 8), 17.9 µM.
